Data reported in the NIST ThermoML archive (doi:10.1021/je060485s).
± gives the expanded uncertainty stated by the source.

Legend:
[1] = for surface tension liquid-gas: Pendant drop shape; for mass density: 101 kPa, Liquid
[2] = xn = mol fraction of the nth substance listed; settings: for surface tension liquid-gas: Pendant drop shape; for mass density: 101 kPa, Liquid

Cc1ccccc1C [1,2-dimethylbenzene]
[1]
Settings	mass density [kg/m3]	surface tension liquid-gas [mN/m]
298.15 K	875.05 ± 0.34	29.89 ± 0.32
303.15 K	870.83 ± 0.35	29.24 ± 0.31
308.15 K	866.62 ± 0.36	28.57 ± 0.31

Cc1ccccc1C [1,2-dimethylbenzene] + CCCOC(C)=O
[2], x2 = 0
Settings	mass density [kg/m3]	surface tension liquid-gas [mN/m]
298.15 K	875.05 ± 0.34	29.89 ± 0.32
303.15 K	870.83 ± 0.35	29.24 ± 0.31
308.15 K	866.62 ± 0.36	28.57 ± 0.31

Cc1cccc(C)c1 [1,3-dimethylbenzene]
[1]
Settings	mass density [kg/m3]	surface tension liquid-gas [mN/m]
298.15 K	859.8 ± 0.41	28.47 ± 0.31
303.15 K	855.51 ± 0.42	27.93 ± 0.31
308.15 K	851.19 ± 0.43	27.37 ± 0.31

Cc1cccc(C)c1 [1,3-dimethylbenzene] + CCCOC(C)=O
[2]
Settings	mass density [kg/m3]	surface tension liquid-gas [mN/m]
298.15 K, x2 = 0	859.8 ± 0.41	28.47 ± 0.31
298.15 K, x2 = 0.0997	861.98 ± 0.41	27.86 ± 0.31
298.15 K, x2 = 0.1999	864.17 ± 0.4	27.26 ± 0.3
298.15 K, x2 = 0.2986	866.33 ± 0.39	26.7 ± 0.3
298.15 K, x2 = 0.4002	868.57 ± 0.39	26.16 ± 0.29
298.15 K, x2 = 0.4986	870.76 ± 0.38	25.71 ± 0.29
298.15 K, x2 = 0.6004	873.06 ± 0.37	25.3 ± 0.28
298.15 K, x2 = 0.6984	875.31 ± 0.37	24.94 ± 0.28
298.15 K, x2 = 0.8004	877.7 ± 0.36	24.59 ± 0.28
298.15 K, x2 = 0.9007	880.11 ± 0.35	24.25 ± 0.27
303.15 K, x2 = 0	855.51 ± 0.42	27.93 ± 0.31
303.15 K, x2 = 0.0999	857.57 ± 0.41	27.35 ± 0.3
303.15 K, x2 = 0.1989	859.62 ± 0.41	26.79 ± 0.3
303.15 K, x2 = 0.299	861.69 ± 0.4	26.25 ± 0.29
303.15 K, x2 = 0.4003	863.8 ± 0.39	25.73 ± 0.29
303.15 K, x2 = 0.5	865.9 ± 0.39	25.27 ± 0.28
303.15 K, x2 = 0.5994	868.02 ± 0.38	24.88 ± 0.28
303.15 K, x2 = 0.6998	870.19 ± 0.37	24.51 ± 0.28
303.15 K, x2 = 0.8006	872.42 ± 0.37	24.15 ± 0.27
303.15 K, x2 = 0.8992	874.66 ± 0.36	23.81 ± 0.27
308.15 K, x2 = 0	851.19 ± 0.43	27.37 ± 0.31
308.15 K, x2 = 0.0998	853.12 ± 0.42	26.8 ± 0.3
308.15 K, x2 = 0.2	855.07 ± 0.41	26.25 ± 0.29
308.15 K, x2 = 0.2998	857.01 ± 0.41	25.71 ± 0.29
308.15 K, x2 = 0.3993	858.96 ± 0.4	25.19 ± 0.28
308.15 K, x2 = 0.5006	860.96 ± 0.39	24.7 ± 0.28
308.15 K, x2 = 0.6004	862.95 ± 0.39	24.27 ± 0.28
308.15 K, x2 = 0.6999	864.97 ± 0.38	23.89 ± 0.27
308.15 K, x2 = 0.7988	867.02 ± 0.38	23.52 ± 0.27
308.15 K, x2 = 0.9013	869.2 ± 0.37	23.15 ± 0.27

Cc1ccc(C)cc1 [1,4-dimethylbenzene]
[1]
Settings	mass density [kg/m3]	surface tension liquid-gas [mN/m]
298.15 K	856.92 ± 0.36	28.08 ± 0.3
303.15 K	852.58 ± 0.37	27.47 ± 0.29
308.15 K	848.26 ± 0.37	27.13 ± 0.29
